PubChem BioAssay (NCI)
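1) Cells in 96-well plates. 2) Compound, 48 h, 5 concentrations. 3) Linear interpolation between surrounding doses. 4) Unreached endpoint = highest concentration. GI50: concentration for 50% inhibition of growth. The concentration for full growth arrest is given as TGI.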

Legend:
Test in all cases: NCI-60 cell line screen, 48 h
MALME-3M melanoma = test system: MALME-3M melanoma
BT-549 breast = test system: BT-549 breast
UACC-62 melanoma = test system: UACC-62 melanoma
OVCAR-8 ovarian = test system: OVCAR-8 ovarian
ACHN renal = test system: ACHN renal
HOP-62 NSCLC = test system: HOP-62 NSCLC
NCI-H226 lung = test system: NCI-H226 lung
MDA-MB-231 breast = test system: MDA-MB-231 breast
MOLT-4 leukemia = test system: MOLT-4 leukemia
CAKI-1 renal = test system: CAKI-1 renal
CCRF-CEM leukemia = test system: CCRF-CEM leukemia
SK-MEL-2 melanoma = test system: SK-MEL-2 melanoma
UACC-257 melanoma = test system: UACC-257 melanoma
TK-10 renal = test system: TK-10 renal
SK-OV-3 ovarian = test system: SK-OV-3 ovarian
SW-620 colon = test system: SW-620 colon
HCT-116 colon = test system: HCT-116 colon
OVCAR-5 ovarian = test system: OVCAR-5 ovarian
HOP-92 NSCLC = test system: HOP-92 NSCLC
LOX IMVI melanoma = test system: LOX IMVI melanoma
SNB-19 CNS = test system: SNB-19 CNS
OVCAR-4 ovarian = test system: OVCAR-4 ovarian
T-47D breast = test system: T-47D breast
SK-MEL-5 melanoma = test system: SK-MEL-5 melanoma
NCI/ADR-RES ovarian = test system: NCI/ADR-RES ovarian
MCF7 breast = test system: MCF7 breast
A498 renal = test system: A498 renal
SF-268 CNS = test system: SF-268 CNS
A549 NSCLC = test system: A549 NSCLC
EKVX NSCLC = test system: EKVX NSCLC
KM12 colon = test system: KM12 colon
HCC-2998 colon = test system: HCC-2998 colon
SF-539 CNS = test system: SF-539 CNS
IGROV1 ovarian = test system: IGROV1 ovarian
U251 CNS = test system: U251 CNS
SN12C renal = test system: SN12C renal
HL-60(TB) leukemia = test system: HL-60(TB) leukemia
K-562 leukemia = test system: K-562 leukemia
M14 melanoma = test system: M14 melanoma
PC-3 prostate = test system: PC-3 prostate
MDA-MB-468 breast = test system: MDA-MB-468 breast
UO-31 renal = test system: UO-31 renal
HCT-15 colon = test system: HCT-15 colon
NCI-H522 lung = test system: NCI-H522 lung
SF-295 CNS = test system: SF-295 CNS
HS 578T breast = test system: HS 578T breast
MDA-MB-435 = test system: MDA-MB-435
NCI-H460 lung = test system: NCI-H460 lung
DU-145 prostate = test system: DU-145 prostate
SNB-75 CNS = test system: SNB-75 CNS
786-0 renal = test system: 786-0 renal
RPMI-8226 leukemia = test system: RPMI-8226 leukemia
RXF 393 renal = test system: RXF 393 renal
COLO 205 colon = test system: COLO 205 colon
HT29 colon = test system: HT29 colon
NCI-H23 lung = test system: NCI-H23 lung
SK-MEL-28 melanoma = test system: SK-MEL-28 melanoma
OVCAR-3 ovarian = test system: OVCAR-3 ovarian

## COC(=O)C[C@](O)(CCCC(C)C)C(=O)O[C@H]1C(OC)=C[C@@]23CCCN2CCc2cc4c(cc2[C@@H]13)OCO4
MALME-3M melanoma
  GI50: 888 nM
  TGI: 3.22 µM
BT-549 breast
  GI50: 995 nM
  TGI: 3.74 µM
UACC-62 melanoma
  GI50: 3.15 µM
  TGI: 16.6 µM
OVCAR-8 ovarian
  GI50: 1790 nM
  TGI: 19.7 µM
ACHN renal
  GI50: 1210 nM
  TGI: 6.61 µM
HOP-62 NSCLC
  GI50: 2800 nM
  TGI: 30 µM
NCI-H226 lung
  GI50: 940 nM
  TGI: 7.23 µM
MDA-MB-231 breast
  GI50: 3.88 µM
  TGI: 14.6 µM
MOLT-4 leukemia
  GI50: 699 nM
  TGI: 3.4 µM
CAKI-1 renal
  GI50: 2410 nM
  TGI: 35.2 µM
CCRF-CEM leukemia
  GI50: 1020 nM
  TGI: 7.08 µM
SK-MEL-2 melanoma
  GI50: 3.96 µM
  TGI: 12.7 µM
UACC-257 melanoma
  GI50: 2160 nM
  TGI: 15.6 µM
TK-10 renal
  GI50: 4.12 µM
  TGI: 27.3 µM
SK-OV-3 ovarian
  GI50: 1620 nM
  TGI: 38.2 µM
SW-620 colon
  GI50: 1490 nM
  TGI: 32.5 µM
HCT-116 colon
  GI50: 992 nM
  TGI: 5.44 µM
OVCAR-5 ovarian
  GI50: 2560 nM
  TGI: 15.4 µM
HOP-92 NSCLC
  GI50: 2300 nM
  TGI: 18.6 µM
LOX IMVI melanoma
  GI50: 852 nM
  TGI: 4.45 µM
SNB-19 CNS
  GI50: 917 nM
  TGI: 6.24 µM
OVCAR-4 ovarian
  GI50: 1640 nM
  TGI: 17 µM
T-47D breast
  GI50: 1620 nM
  TGI: 31.8 µM
SK-MEL-5 melanoma
  GI50: 823 nM
  TGI: 2450 nM
NCI/ADR-RES ovarian
  GI50: 2550 nM
  TGI: 19 µM
MCF7 breast
  GI50: 751 nM
  TGI: 2790 nM
A498 renal
  GI50: 776 nM
  TGI: 5.78 µM
SF-268 CNS
  GI50: 5.01 µM
  TGI: 22.8 µM
A549 NSCLC
  GI50: 1390 nM
  TGI: 17.7 µM
EKVX NSCLC
  GI50: 2290 nM
  TGI: 18.1 µM
KM12 colon
  GI50: 1540 nM
  TGI: 21.6 µM
HCC-2998 colon
  GI50: 723 nM
  TGI: 2710 nM
SF-539 CNS
  GI50: 838 nM
  TGI: 2240 nM
IGROV1 ovarian
  GI50: 1770 nM
  TGI: 18.8 µM
U251 CNS
  GI50: 1210 nM
  TGI: 11.8 µM
SN12C renal
  GI50: 3.62 µM
  TGI: 23.2 µM
HL-60(TB) leukemia
  GI50: 771 nM
  TGI: 2270 nM
K-562 leukemia
  GI50: 1140 nM
  TGI: 11.1 µM
M14 melanoma
  GI50: 1140 nM
  TGI: 4.66 µM
PC-3 prostate
  GI50: 1380 nM
  TGI: 14.6 µM
MDA-MB-468 breast
  GI50: 869 nM
  TGI: 3.2 µM
UO-31 renal
  GI50: 1070 nM
  TGI: 11.2 µM
HCT-15 colon
  GI50: 1130 nM
  TGI: 4.22 µM
NCI-H522 lung
  GI50: 1030 nM
  TGI: 2970 nM
SF-295 CNS
  GI50: 1490 nM
  TGI: 11.6 µM
HS 578T breast
  GI50: 2120 nM
  TGI: 18.5 µM
MDA-MB-435
  GI50: 1830 nM
  TGI: 12.9 µM
NCI-H460 lung
  GI50: 695 nM
  TGI: 4.78 µM
DU-145 prostate
  GI50: 1910 nM
  TGI: 17.9 µM
SNB-75 CNS
  GI50: 1970 nM
  TGI: 13.9 µM
786-0 renal
  GI50: 1960 nM
  TGI: 14.3 µM
RPMI-8226 leukemia
  GI50: 1050 nM
  TGI: 2990 nM
RXF 393 renal
  GI50: 641 nM
  TGI: 2180 nM
COLO 205 colon
  GI50: 1790 nM
  TGI: 8.73 µM
HT29 colon
  GI50: 1160 nM
  TGI: 5.99 µM
NCI-H23 lung
  GI50: 1350 nM
  TGI: 6.66 µM
SK-MEL-28 melanoma
  GI50: 1290 nM
  TGI: 8.71 µM
OVCAR-3 ovarian
  GI50: 1130 nM
  TGI: 8.52 µM
